Test results: patent US20100303833A1, “Method for Identifying a MHC Class H-Dependent Tumor Associated T Helper Cell Antigen” (priority 2005, published 2010)
Ends that are not written are not given here.

How the values were obtained:
Type in all cases: cell-based, human
PBMC = assay: Lymphocyte proliferation assay ([3H]-thymidine incorporation), PBMC with peptide-pulsed autologous monocytes
Procedure: (§1) Lymphocyte Proliferation Assay. The lymphocyte proliferation assay was performed according to standard methods (Somasundaram, et al. (1995) J. Immunol. 155:3253-61). For screening of Th35-1A cell-reactivity with phage libraries, T helper cells (1-2×10^4/well of 96-well round-bottom microtiter plates; CORNING, Corning, N.Y.) were cultured with irradiated autologous EBV-B cells (10^4/well) pre-pulsed with 1-3×10^3 phage. To determine T helper or PBMC reactivity with peptide, adherent monocytes (5×10^4/well, obtained from PBMC) pre-pulsed with various concentrations (3.1-50 μM) of peptide were incubated with Th35-1A cells or PBMC (5×10^4/well). T helper cells or PBMC were stimulated with peptide-pulsed monocytes once or twice. All incubations were at 37° C. for 5 days in RPMI 1640/GLUTAMAX medium supplemented with 10% heat-inactivated human AB serum (Gemini Bioproducts, West Sacramento, Calif.), 10 mM HEPES and 5×10^−5 M 2-mercaptoethanol (both from SIGMA-ALDRICH). Proliferative responses of lymphocytes were determined using a standard [^3H]-thymidine incorporation assay. All determinations were performed in triplicate. Results are expressed as counts per minute (cpm) incorporated into lymphocytes. The lymphocyte proliferation inhibition assay with anti-HLA class II antibody B33.1 was performed using established methods (Somasundaram, et al. (1995) supra).

lymphocytes = assay: IFN-γ release assay (ELISA)
Procedure: IFN-γ Release Assay. Supernatants obtained 48 hours after T helper cell stimulation with phage-pulsed EBV-B cells were tested for the presence of IFN-γ using an ENDOGEN ELISA kit (Pierce Biotechnology, Inc., Rockford, Ill.).

Th35-1A cells = assay: Lymphocyte proliferation assay ([3H]-thymidine incorporation), Th35-1A cells with peptide-pulsed monocytes; conditions: for HLA dependence of peptide recognition by Th35-1A: peptide-pulsed autologous DR7+ monocytes, anti-HLA class II antibody or control mouse Ig at 10 μg/mL (FIG. 2A)
Procedure: as §1

In the case of “TGRLRGTKTVQEKEN [peptide #2, RPL8 position 243-257]”, the “Proliferation of autologous PBMC following peptide stimulation” value (PBMC; lymphocytes from two of the three DR7+ melanoma patients (FIGS. 3A-3C), stimulated twice) is reported as “significantly and specifically proliferated”, the “Lymphoproliferative responses to peptide stimulation” value (PBMC; two DR7− melanoma patients (FIGS. 3D, 3E) and four healthy donors (FIG. 3F), one peptide stimulation, listed as RPL8 peptide #2) is reported as “did not respond” and the IFN-γ produced (lymphocytes; non-proliferating lymphocytes from two DR7− patients (FIGS. 3D, 3E) and healthy donor (FIG. 3F)) is reported as < 12 pg/mL. The IFN-γ produced maximally (lymphocytes; proliferating lymphocytes from DR7+ patient of FIG. 3A) was 124.3±1.67 pg per mL, the IFN-γ produced maximally (lymphocytes; proliferating lymphocytes from DR7+ patient of FIG. 3B) was 224.3±4.3 pg per mL and the “Recognition by Th35-1A” value (Th35-1A cells; after presentation by autologous monocytes (FIG. 2A)) was “recognized”. For the same sequence, the “Presentation of peptide to Th35-1A cells by allogeneic DR7+ monocytes” value (Th35-1A cells; allogeneic DR7+ monocytes (FIG. 2C)) was “presented”, the “Presentation of peptide to Th35-1A cells by DR7− monocytes” value (Th35-1A cells; allogeneic DR7− monocytes (FIG. 2D)) was “did not” and the “HLA dependence of peptide recognition by Th35-1A” value (Th35-1A cells) was “HLA class II-dependent”. The “HLA dependence of peptide recognition by Th35-1A” value (Th35-1A cells; listed as RPL8 peptide #2) was “HLA DR7- and peptide concentration-dependent” and the “Th35-1A proliferation, dependence on peptide concentration” value (Th35-1A cells; peptide-pulsed autologous monocytes, various concentrations (FIG. 2B)) was “peptide concentration-dependent”.
